Measured values taken from PMC5432571 (Frontiers in Molecular Neuroscience, 2017).
Read-outs that look alike come from different tables or passages of the source.

Target: T1, G254A-α1 GlyR (Homo sapiens, UniProt P23415, G282A)
T1 construct: expressed in transfected cells; host or cells: CHO cells
T1 sequence (P23415 29-449 isoform P23415-2 G282A limits assumed): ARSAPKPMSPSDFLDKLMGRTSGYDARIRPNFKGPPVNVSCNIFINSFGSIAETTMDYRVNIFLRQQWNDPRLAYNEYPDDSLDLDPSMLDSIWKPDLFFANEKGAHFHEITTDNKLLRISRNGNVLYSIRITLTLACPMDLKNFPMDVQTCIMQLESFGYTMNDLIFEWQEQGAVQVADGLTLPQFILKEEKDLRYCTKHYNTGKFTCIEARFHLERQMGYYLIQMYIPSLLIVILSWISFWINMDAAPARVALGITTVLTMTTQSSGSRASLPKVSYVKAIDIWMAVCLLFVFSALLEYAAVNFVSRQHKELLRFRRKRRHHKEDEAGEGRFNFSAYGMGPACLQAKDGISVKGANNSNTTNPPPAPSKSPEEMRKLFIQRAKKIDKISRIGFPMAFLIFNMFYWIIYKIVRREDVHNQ
Experiment: Whole-cell patch-clamp of glycine-induced currents, G254A-α1 GlyR mutant expressed in CHO cells
Format: cell-based
Conditions: for inhibition at 30 µM / inhibition at 100 µM / inhibition at 300 µM: CHO, long application protocol, read-out: inhibition of G254A-α1 GlyR mediated currents; for inhibition at 30 µM: NFA 30 μM; for inhibition at 100 µM: NFA 100 μM; for inhibition at 300 µM: NFA 300 μM
Protocol: The experiments were carried out on cultured Chinese hamster ovary (CHO) cells obtained from the American Type Tissue Culture Collection (ATCC, Molsheim, France) that were maintained in culture conditions as previously described (Mukhtarov et al., [2013]; Maleeva et al., [2015]).
One day before transfection, cells were plated on the cover slips (12 mm in diameter) and placed inside 35-mm cell culture dishes with 2 ml of medium. Transfection was performed using the Lipofectamine 3000 protocol (Life Technology, USA). To facilitate identification of transfected cells a green fluorescent protein (GFP) was added to the transfection mixture. For expression of functional heteromeric receptors, cells were simultaneously transfected with cDNAs of α and β subunits in the ratio 1:10. Three hours after the initial exposure of cells to the cDNAs the culture medium was replaced with that containing strychnine (1 μM), which prevents spontaneous activation of GlyRs. Electrophysiological recordings were performed in the fluorescent cells 24–72 h after transfection.
Whole-cell and outside-out recordings were performed at room temperature (20–25°C) using an EPC-9 amplifier (HEKA Elektronik, Germany). Cells were continuously superfused with external solution containing (mM): NaCl 140, CaCl2 2, KCl 2.8, MgCl2 4, HEPES 20, glucose 10; pH 7.4; 320–330 mOsm. Intracellular solution used for filling recording patch pipettes contained (mM): CsCl 140, CaCl2 6, MgCl2 2, MgATP 2, NaGTP 0.4, HEPES/CsOH 10, BAPTA (tetrapotassium salt) 2; pH 7.3; 290 mOsm. Two different protocols of solutions application were used in this study. […] A “ramp protocol” implies the gradual change of Vhold alternately from −80 to +80 mV and from +80 to −80 mV during 1 s, Vhold was fixed at −80 or +80 mV at the beginning and at the end of the ramp for 500 ms (Figure 2B).
Recording pipettes were pulled from borosilicate glass capillaries (Harvard Apparatus Ltd, USA) and had resistances of 5–10 MOhm. For the rapid replacement of the solutions, the fast application system was used. Three parallel rectangular tubes (100 × 100 μm) were positioned 40–50 μm above the recorded cell. The movement of the tubes was controlled by a computer-driven fast exchange system (SF 77A Perfusion Fast-Step, Warner, USA) allowing a 10–90% solution exchange in 3–5 ms, as measured by open electrode controls (1/10 external solution/water). Cells with low input resistance (<150 MOhm) and a rapid run-down (>30% with repetitive application) were excluded from analysis.
Electrophysiological recordings were performed using PatchMaster (HEKA Electronic, Germany) software.
The fractional electrical distance from the external side of the membrane (δ) at which bound NFA blocked the current was calculated using the Woodhull equation: IC50(V)=IC50(0) exp (−δFV/RT), where IC50(V) is IC50 at the given membrane potential, IC50(0) – at 0 mV, V – membrane potential and F, R, T have their usual meanings. δ was determined from a plot of IC50 values against membrane potential.

O=C(O)c1cccnc1Nc1cccc(C(F)(F)F)c1 [NFA, Niflumic acid]
IC50 (+30 mV, glycine 30 μM, representative, read-out: NFA IC50 (representative IC50 curve)): 92 µM | IC50 (+30 mV, glycine 100 μM, representative, read-out: NFA IC50 (representative IC50 curve)): 106 µM | IC50 (+80 mV, glycine 30 μM, ramp protocol, mean ± SEM, read-out: IC50 of NFA): 64 ± 10 µM | IC50 (+80 mV, glycine 30 μM, representative, read-out: NFA IC50 (representative IC50 curve)): 68 µM | IC50 (+80 mV, glycine 100 μM, representative, read-out: NFA IC50 (representative IC50 curve)): 57 µM | inhibition at 30 µM (Vhold +30 mV, glycine 30 μM): 23 ± 7% | inhibition at 30 µM (Vhold −30 mV, glycine 30 μM): 22 ± 4% | inhibition at 100 µM (Vhold +30 mV, glycine 30 μM): 43 ± 10% | inhibition at 100 µM (Vhold −30 mV, glycine 30 μM): 34 ± 6% | inhibition at 300 µM (Vhold +30 mV, glycine 30 μM): 76 ± 4% | inhibition at 300 µM (Vhold −30 mV, glycine 30 μM): 52 ± 11% | IC50 (MP +80 mV, increased agonist concentration (glycine 100 μM), mean ± SEM, read-out: IC50 of NFA): 58 ± 8 µM | IC50 (at negative potentials, glycine 30 μM, ramp protocol, mean ± SEM, read-out: IC50 of NFA): 257 ± 25 µM | level of the NFA binding site from the extracellular side (both examined agonist concentrations, Woodhull analysis): ~ 30% | Fractional electrical distance (δ) from the extracellular side of the membrane (glycine 30 μM, Woodhull analysis): 0.37 ± 0.04 (n = 9) | Fractional electrical distance (δ) from the extracellular side of the membrane (glycine 100 μM, Woodhull analysis): 0.30 ± 0.04 (n = 7) | Hill coefficient (nH) of NFA interaction (membrane potential 30 mV, glycine 30 μM): 1.3 ± 0.08 | Hill coefficient (nH) of NFA interaction (membrane potential 50 mV, glycine 30 μM): 1.36 ± 0.11 | Hill coefficient (nH) of NFA interaction (membrane potential 70 mV, glycine 30 μM): 1.26 ± 0.1 | Hill coefficient (nH) of NFA interaction (membrane potential 80 mV, glycine 30 μM): 1.22 ± 0.09 | Hill coefficient (nH) of NFA interaction (membrane potential −50 mV, glycine 30 μM): 1.37 ± 0.18 | Hill coefficient (nH) of NFA interaction (membrane potential −70 mV, glycine 30 μM): 1.34 ± 0.1 | Hill coefficient (nH) of NFA interaction (membrane potential −80 mV, glycine 30 μM): 1.46 ± 0.16 | IC50 (−30 mV, glycine 30 μM, representative, read-out: NFA IC50 (representative IC50 curve)): 185 µM | IC50 (−30 mV, glycine 100 μM, representative, read-out: NFA IC50 (representative IC50 curve)): 190 µM | IC50 (−80 mV, glycine 30 μM, representative, read-out: NFA IC50 (representative IC50 curve)): 230 µM | IC50 (−80 mV, glycine 100 μM, representative, read-out: NFA IC50 (representative IC50 curve)): 260 µM
